Data reported in patent US20230113037A1 (Bayer Aktiengesellschaft, priority 2019, published 2023).

What was measured:
[1] = target: T1, AHR (Homo sapiens, UniProt P35869); experiment: In vitro assay 1: antagonism in human cell line (AHR transactivation, firefly luciferase reporter, kynurenic acid prestimulated); assay type: cell-based; settings: AHR Antagonism Human IC50 [M]
T1 construct: U87 MG glioblastoma cells (ATCC #HTB-14) endogenously expressing AHR; endogenous in cells; host or cells: U87 MG glioblastoma cells (ATCC #HTB-14)
T1 sequence (P35869 11-848): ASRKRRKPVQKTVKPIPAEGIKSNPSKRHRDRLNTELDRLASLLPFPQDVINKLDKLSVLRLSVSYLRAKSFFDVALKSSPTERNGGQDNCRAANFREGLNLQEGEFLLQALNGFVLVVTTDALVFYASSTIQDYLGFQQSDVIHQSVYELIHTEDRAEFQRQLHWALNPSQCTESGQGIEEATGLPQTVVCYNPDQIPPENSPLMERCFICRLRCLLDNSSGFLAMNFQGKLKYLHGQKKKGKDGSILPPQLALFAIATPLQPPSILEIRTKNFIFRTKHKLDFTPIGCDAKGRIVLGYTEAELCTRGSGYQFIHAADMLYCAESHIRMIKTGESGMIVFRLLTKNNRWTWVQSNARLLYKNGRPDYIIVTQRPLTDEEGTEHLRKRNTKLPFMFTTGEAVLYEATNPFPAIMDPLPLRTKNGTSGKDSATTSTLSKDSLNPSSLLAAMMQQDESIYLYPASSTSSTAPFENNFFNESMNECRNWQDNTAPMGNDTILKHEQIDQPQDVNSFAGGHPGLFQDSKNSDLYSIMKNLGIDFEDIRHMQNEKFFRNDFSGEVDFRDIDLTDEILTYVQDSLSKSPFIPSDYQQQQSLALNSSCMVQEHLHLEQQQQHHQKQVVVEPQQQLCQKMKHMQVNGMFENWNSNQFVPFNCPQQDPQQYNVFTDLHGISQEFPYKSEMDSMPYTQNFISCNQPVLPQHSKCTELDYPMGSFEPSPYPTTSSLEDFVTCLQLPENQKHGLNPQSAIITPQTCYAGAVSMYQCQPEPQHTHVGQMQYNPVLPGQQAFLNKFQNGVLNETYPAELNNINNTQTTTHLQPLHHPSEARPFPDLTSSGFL
How it was run: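 U87 MG + DRE-firefly/constitutive-Renilla stable reporters; kynurenic acid prestim; dual-luc read; Renilla = tox; normalized vs pos/neg controls (pos: 150 μM KYNA + 5 μM staurosporine).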

[2] = target: T2, AHR (Mus musculus, UniProt P30561); experiment: In vitro assay 3: antagonism in mouse cell line (AHR transactivation, firefly luciferase reporter, kynurenic acid prestimulated); assay type: cell-based; settings: mouse Hepa 1c1c7 cells, 200 μM kynurenic acid, 20 hours, read-out: AHR Antagonism Mouse IC50
T2 sequence (P30561 1-848 P471L/N533S/M589L): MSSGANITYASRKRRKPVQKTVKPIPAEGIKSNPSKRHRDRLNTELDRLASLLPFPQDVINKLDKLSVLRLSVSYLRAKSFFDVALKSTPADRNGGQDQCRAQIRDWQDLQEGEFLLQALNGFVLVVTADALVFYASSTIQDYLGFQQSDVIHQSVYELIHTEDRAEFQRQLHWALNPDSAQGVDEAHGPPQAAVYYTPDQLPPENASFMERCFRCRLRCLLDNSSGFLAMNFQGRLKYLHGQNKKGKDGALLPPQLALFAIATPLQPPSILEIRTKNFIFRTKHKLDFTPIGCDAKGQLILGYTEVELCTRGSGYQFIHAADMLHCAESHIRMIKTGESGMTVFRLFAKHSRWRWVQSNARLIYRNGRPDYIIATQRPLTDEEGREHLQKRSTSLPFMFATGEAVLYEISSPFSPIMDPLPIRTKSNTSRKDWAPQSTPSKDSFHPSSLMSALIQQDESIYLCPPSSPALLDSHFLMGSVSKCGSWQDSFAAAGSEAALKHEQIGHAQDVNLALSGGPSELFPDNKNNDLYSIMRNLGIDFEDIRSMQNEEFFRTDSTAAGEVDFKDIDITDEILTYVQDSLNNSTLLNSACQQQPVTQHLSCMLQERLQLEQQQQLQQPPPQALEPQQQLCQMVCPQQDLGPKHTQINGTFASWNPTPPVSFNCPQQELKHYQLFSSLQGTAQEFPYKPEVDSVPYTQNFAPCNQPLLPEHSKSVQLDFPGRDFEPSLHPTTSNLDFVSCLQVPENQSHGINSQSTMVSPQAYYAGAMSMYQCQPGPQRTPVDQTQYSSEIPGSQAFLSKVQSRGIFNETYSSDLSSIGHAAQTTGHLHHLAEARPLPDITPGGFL
How it was run: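 Cells were first stimulated with kynurenic acid, then exposed to test compound, after which firefly luciferase from a DRE-containing AHR reporter was read out. Signal was scaled between positive and negative controls. Cells not given kynurenic acid provided the inhibition reference.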

Row | Structure (SMILES) | IC50 [1] | IC50 [2]
1 | COc1cccc(-c2nc3c4c(C)cccc4nc(N[C@H]4CCCNC4=O)n3n2)c1 [Example 182, (3S)-3-{[2-(3-methoxyphenyl)-10-methyl[1,2,4]triazolo[1,5-c]quinazolin-5-yl]amino}piperidin-2-one] | 2.54e-07 M | 1020 nM
2 | Cc1cccc2nc(N[C@@H]3CCCCNC3=O)n3nc(-c4cnn(C)c4)nc3c12 [Example 183, (3R)-3-{[10-methyl-2-(1-methyl-1H-pyrazol-4-yl)[1,2,4]triazolo[1,5-c]quinazolin-5-yl]amino}azepan-2-one] | 2.48e-08 M | 453 nM
3 | COc1cccc(-c2nc3c4c(F)cccc4nc(N[C@H](C)C(N)=O)n3n2)c1 [Example 184, N^2-[10-fluoro-2-(3-methoxyphenyl)[1,2,4]triazolo[1,5-c]quinazolin-5-yl]-D-alaninamide] | 9.66e-09 M | 62.8 nM
4 | COc1cccc(-c2nc3c4c(F)cccc4nc(N[C@@H]4CCCCNC4=O)n3n2)c1 [Example 185] | 1.05e-08 M | 9.84 nM
5 | O=C1NCCCC[C@H]1Nc1nc2c(Cl)cccc2c2nc(-c3ccncc3)nn12 [Example 193, (3R)-3-{[7-Chloro-2-(pyridin-4-yl)[1,2,4]triazolo[1,5-c]quinazolin-5-yl]amino}azepan-2-one] | 2.05e-08 M | 87.2 nM
6 | Cn1cc(-c2nc3c4cccc(Cl)c4nc(N[C@@H]4CCCCNC4=O)n3n2)cn1 [Example 194, (3R)-3-{[7-Chloro-2-(1-methyl-1H-pyrazol-4-yl)[1,2,4]triazolo[1,5-c]quinazolin-5-yl]amino}azepan-2-one] | 1.17e-09 M | 3.83 nM
7 | CC(C)n1cc(-c2nc3c4ccccc4nc(N[C@@H]4CCCCNC4=O)n3n2)cn1 [Example 195, (3R)-3-({2-[1-(propan-2-yl)-1H-pyrazol-4-yl][1,2,4]triazolo[1,5-c]quinazolin-5-yl]amino)azepan-2-one] | 3.06e-09 M | 2.55 nM
8 | O=C1NCCCC[C@H]1Nc1nc2ccccc2c2nc(-c3cccc(Cl)c3Cl)nn12 [Example 196, (3R)-3-{[2-(2,3-dichlorophenyl)[1,2,4]triazolo[1,5-c]quinazolin-5-yl]amino}azepan-2-one] | 4.09e-09 M | 1.11 nM
9 | O=C1NCCCC[C@H]1Nc1nc2ccccc2c2nc(-c3cc(F)ccc3F)nn12 [Example 197, (3R)-3-{[2-(2,5-difluorophenyl)[1,2,4]triazolo[1,5-c]quinazolin-5-yl]amino}azepan-2-one] | 4.23e-09 M | 1.82 nM
10 | Cc1nnc(-c2nc3c4ccccc4nc(N[C@@H]4CCCCNC4=O)n3n2)o1 [Example 199, (3R)-3-{[2-(5-methyl-1,3,4-oxadiazol-2-yl)[1,2,4]triazolo[1,5-c]quinazolin-5-yl]amino}azepan-2-one] | 5.37e-07 M | 114 nM
11 | O=C1NCCCC[C@H]1Nc1nc2ccccc2c2nc(-c3ccc(Br)cc3Cl)nn12 [Example 200, (3R)-3-{[2-(4-bromo-2-chlorophenyl)[1,2,4]triazolo[1,5-c]quinazolin-5-yl]amino}azepan-2-one] | 2.87e-09 M | > 20000 nM
12 | CSc1ccc(-c2nc3c4ccccc4nc(N[C@@H]4CCCCNC4=O)n3n2)cc1 [Example 202, (3R)-3-({2-[4-(methylsulfanyl)phenyl][1,2,4]triazolo[1,5-c]quinazolin-5-yl}amino)azepan-2-one] | 5.17e-10 M | 0.657 nM
13 | O=C1NCCCC[C@H]1Nc1nc2c(C(F)(F)F)cccc2c2nc(-c3ccc(F)cc3)nn12 [Example 203, (3R)-3-{[2-(4-fluorophenyl)-7-(trifluoromethyl)[1,2,4]triazolo[1,5-c]quinazolin-5-yl]amino}azepan-2-one] | 6.29e-10 M | 0.48 nM
14 | COc1ccc(-c2nc3c4cccc(C(F)(F)F)c4nc(N[C@@H]4CCCCNC4=O)n3n2)cc1 [Example 204, (3R)-3-{[2-(4-methoxyphenyl)-7-(trifluoromethyl)[1,2,4]triazolo[1,5-c]quinazolin-5-yl]amino}azepan-2-one] | 1.15e-09 M | 1.02 nM
15 | COc1ccc(-c2nc3c4cccc(OC)c4nc(N[C@@H]4CCCCNC4=O)n3n2)cc1 [Example 205, (3R)-3-{[7-methoxy-2-(4-methoxyphenyl)[1,2,4]triazolo[1,5-c]quinazolin-5-yl]amino}azepan-2-one] | 2.15e-09 M | 7.65 nM
16 | COc1ccc(-c2nc3c4cccc(C5CC5)c4nc(N[C@@H]4CCCCNC4=O)n3n2)cc1 [Example 206, (3R)-3-{[7-cyclopropyl-2-(4-methoxyphenyl)[1,2,4]triazolo[1,5-c]quinazolin-5-yl]amino}azepan-2-one] | 9.97e-09 M | 7.88 nM
17 | Cn1cc(-c2nc3c4cccc(C5CC5)c4nc(N[C@@H]4CCCCNC4=O)n3n2)cn1 [Example 207, (3R)-3-{[7-cyclopropyl-2-(1-methyl-1H-pyrazol-4-yl)[1,2,4]triazolo[1,5-c]quinazolin-5-yl]amino}azepan-2-one] | 1.77e-08 M | 242 nM
18 | O=C1NCCCC[C@H]1Nc1nc2c(Br)cccc2c2nc(-c3ccccc3OC(F)(F)F)nn12 [Example 208, (3R)-3-({7-bromo-2-[2-(trifluoromethoxy)phenyl][1,2,4]triazolo[1,5-c]quinazolin-5-yl}amino)azepan-2-one] | 1.34e-06 M | 23.8 nM
19 | Cn1cc(-c2nc3c4cccc(Br)c4nc(N[C@@H]4CCCCNC4=O)n3n2)cn1 [Example 212, (3R)-3-{[7-bromo-2-(1-methyl-1H-pyrazol-4-yl)[1,2,4]triazolo[1,5-c]quinazolin-5-yl]amino}azepan-2-one] | 9.71e-10 M | 2.49 nM
20 | O=C1NCCCC[C@H]1Nc1nc2c(Br)cccc2c2nc(-c3ccncc3)nn12 [Example 216, (3R)-3-{[7-bromo-2-(pyridin-4-yl)[1,2,4]triazolo[1,5-c]quinazolin-5-yl]amino}azepan-2-one] | 3.35e-09 M | 12.1 nM
21 | COc1ccc(-c2nc3c4cccc(Br)c4nc(N[C@@H]4CCNC4=O)n3n2)cc1 [Example 218, (3R)-3-{[7-bromo-2-(4-methoxyphenyl)[1,2,4]triazolo[1,5-c]quinazolin-5-yl]amino}pyrrolidin-2-one] | 8.68e-09 M | 29.4 nM
22 | O=C1NCC[C@H]1Nc1nc2c(Br)cccc2c2nc(-c3ccccc3OC(F)(F)F)nn12 [Example 219, (3R)-3-({7-bromo-2-[2-(trifluoromethoxy)phenyl][1,2,4]triazolo[1,5-c]quinazolin-5-yl}amino)pyrrolidin-2-one] | 8.15e-08 M | 7.14 nM
23 | O=C1NCCC[C@H]1Nc1nc2c(Br)cccc2c2nc(-c3ccccc3OC(F)(F)F)nn12 [Example 220, (3R)-3-({7-bromo-2-[2-(trifluoromethoxy)phenyl][1,2,4]triazolo[1,5-c]quinazolin-5-yl}amino)piperidin-2-one] | 2e-08 M | 6.76 nM
24 | Cn1cc(-c2nc3c4cccc(Br)c4nc(N[C@@H]4CCCNC4=O)n3n2)cn1 [Example 221, (3R)-3-{[7-bromo-2-(1-methyl-1H-pyrazol-4-yl)[1,2,4]triazolo[1,5-c]quinazolin-5-yl]amino}piperidin-2-one] | 3.46e-07 M | 653 nM
